Tests used:
[1] = test system: human normal hepatocyte cell line (QSG-7701); experiment: MTT cytotoxic assay, QSG-7701; format: cell-based; settings: QSG7701, 48 h exposure
Procedure: The in vitro antiproliferative activity of DAA derivatives (1–5, 6a–k, 7a–k) were evaluated by MTT assay against human hepatocarcinoma cell line (SMMC-7721), human breast cancer cell line (MDA-MB-231), human cervical carcinoma cell line (HeLa), mouse colon cancer cell line (CT-26) and human normal hepatocyte cell line (QSG-7701). Nocodazole was co-assayed as the positive control and DMEM culture medium containing 0.1% DMSO was used as negative control. The results of the tested compounds expressed as IC50 values (concentration required to inhibit tumor cell proliferation by 50%) were presented in Table 1.
The human hepatocarcinoma cell line (SMMC-7721), human breast cancer cell line (MDA-MB-231), human cervical carcinoma cell line (HeLa), mouse colon cancer cell line (CT-26) and human normal hepatocyte cells (QSG-7701) used in this study were all obtained from Keygene Biotech., China. These cell lines were maintained in DMEM medium supplemented with 10% heat-inactivated fetal bovine serum in a humidified atmosphere of 5% CO2 at 37 °C.
The in vitro cytotoxic activities of the benzimidazole derivatives of dehydroabietic acid were evaluated against tested cell lines via the MTT colorimetric method. Briefly, different tumor cells were grown in DMEM medium supplemented with 10% fetal bovine serum, penicillin (100 U mL^−1), and streptomycin (50 μg mL^−1). Cells were harvested at log phase of growth and seeded in 96-well plates (100 μL per well at a density of 2 × 10^5 cells mL^−1). After 24 h incubation at 37 °C and 5% CO2 to allow cell attachment, cultures were exposed to various concentrations of the isolated compounds for 48 h. Finally, MTT solution (2.5 mg mL^−1 in PBS) was added (40 μL per well). Plates were further incubated for 4 h at 37 °C, and the formazan crystals formed were dissolved by adding 150 μL per well of DMSO. Absorption at 570 nm was measured with an ELISA plate reader. The results were expressed as IC50 values with standard deviations, which was defined as the concentration at which 50% survival of cells was discerned. Nocodazole was co-assayed as positive control.

SMMC-7721 cells = experiment: ROS generation assay (DCFH-DA); format: cell-based, human; settings: 0.2, 0.5, 1 and 2 μM, 24 h
Procedure: Reactive oxygen species (ROS) are highly harmful elements to cells as they exert oxidative stress and finally cause cellular damage. Excessive ROS generation renders cells vulnerable to apoptosis.[39] To determine whether compound 6j triggers ROS generation in SMMC-7721 cells to induce apoptosis, the cells were treated with different concentrations (0, 0.2, 0.5, 1 and 2 μM) of compound 6j for 24 h, and the ROS generation was evaluated using the fluorescent probe 2,7-dichlorofluorescein diacetate (DCF-DA) by fluorescence microscopy. […] This phenomenon implied that the increment of ROS might play an important role as an early mediator in compound 6j-induced apoptosis.
ROS generation assay was performed by using the reactive oxygen species assay kit (Beyotime Biotech., China). Intracellular ROS generation was tested through dichlorodihydro fluorescein diacetate (DCFH-DA) assay. DCFH-DA is taken up by SMMC-7721 cells, and then activated by esterase-mediated cleavage of acetate to form dichlorodihydro fluorescein (DCFH), which is trapped in the cells. DCFH is converted to fluorescein DCF in the presence of ROS. SMMC-7721 cells were seeded in six-well plates and incubated with different concentrations of compound 6j for 24 h. […] Immediately after light exposure, cell images were acquired through an inverted fluorescence microscope (Olympus 1X71 Inverted System Microscope, Olympus, Japan).

COC(=O)[C@]1(C)CCC[C@]2(C)c3cc(Br)c4nc(-c5ccc6[nH]ccc6c5)[nH]c4c3CCC12 (some centres unmarked) [Compound 6j, Methyl 2′-(1H-indol-5-yl)-12-bromo-13,14-imidazolyl-deisopropyl-dehydroabietate]
IC50 [1]: 5.82 ± 0.38 µM | ROS generation (DCF green fluorescence) (SMMC-7721 cells): significantly induced ROS generation

From paper PMC9080489, “Synthesis and biological evaluation of 2-aryl-benzimidazole derivatives of dehydroabietic acid as novel tubulin polymerization inhibitors” (RSC Advances, 2018)
